The METLIN SMRT retention time set (Domingo-Almenara et al. 2019)

Test: gradient 5% acetonitrile 3 min, to 50% in 2 min, to 85% in 15 min, held 3 min, 100 µL/min
Details: column: Zorbax Extend-C18 2.1 x 50 mm; eluents: water / acetonitrile, 0.1% formic acid
In short: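 Retention time was recorded from adduct peaks, which were picked computationally and each inspected manually. Pure standards ran in mixtures of ~100 molecules on HPLC coupled to a quadrupole time-of-flight mass spectrometer, in positive and negative ionization mode, through a Zorbax Extend-C18 column (2.1 × 50 mm, 1.8 μm) at 100 μL/min. Eluents were water and acetonitrile, each with 0.1% formic acid.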

Compound	RP-LC retention time [s]
CCN1C(=O)C2CC3(CCN(C(=O)Nc4ccc5c(c4)OCCO5)CC3)CN2C1=O (stereo not drawn)	706
CCN(CC)C(=O)c1ccc(-c2nc3cc(NS(=O)(=O)c4ccccc4C)ccc3n2C)cc1	694
Cc1cc(NC(=O)CSc2nc(-c3cccs3)nc3c2c(=O)n(C)c(=O)n3C)no1	780
CCn1c(=O)c(N2CCN(C(=O)Nc3cc(F)ccc3F)CC2)nc2ccccc21	997
Cc1nc2cc(NC(=O)c3ccc(S(=O)(=O)N(C)CC4CCCO4)cc3)ccc2s1 (stereo not drawn)	764
COc1ccc(C(O)CN2CCN(c3cccc(C)c3)CC2)cc1 (stereo not drawn)	671
O=c1ccc(-c2ccccc2)nn1Cc1nc(-c2cccc(Cl)c2)no1	1100
COC(=O)c1ccccc1S(=O)(=O)Nc1ccc2c(c1)CCC(=O)N2C	748
CCn1ccc(C(=O)N2CC(c3nc(C4CC4)no3)C3(CCN(C)CC3)C2)n1 (stereo not drawn)	586
CC1(C)CC(=O)C2=C(C1)N(CCCN1CCOCC1)C(=O)C2(NC(=O)c1ccccc1)C(F)(F)F (stereo not drawn)	634
CCN1c2ccc(F)cc2C(=O)NC12CCN(C(=O)c1cc(OC)cc(OC)c1)CC2	782
CN1C(=O)c2ccccc2Oc2ccc(C(=O)NC3CCCCC3)cc21	891
CCN1CCN(CCNC(=O)c2cc3n(n2)CCCN(Cc2ccc(Cl)cc2)C3=O)CC1	610
CCn1ccc2c(cc(C(=O)Nc3ccc(OC)c(Cl)c3)n2C)c1=O	1330
Cc1[nH]c(C(=O)N2CCCC(C(=O)NCC3CCCO3)C2)c(C)c1C(=O)OC(C)C (stereo not drawn)	701
Cc1ccc(CNC(=O)Cn2ccc3ccc(-c4nnc(C)o4)cc32)cc1	798
Cc1ccc(C)c(-c2coc(-c3ccc(NC(=O)CC(C)C)cc3)n2)c1	1260
CC(=O)Nc1onc(C)c1-c1ccc(C)c(S(=O)(=O)NCc2ccc(Br)cc2)c1	870
CCN1CCc2nc(-c3ccc(F)cc3)n(CC(=O)N3CCCc4ccccc43)c(=O)c2C1	625
N#Cc1cccc(S(=O)(=O)N2CCC(c3cc(N)on3)CC2)c1	743
O=C(Nc1nnc(C2CC(=O)N(c3ccc(F)cc3)C2)o1)c1cccc(F)c1 (stereo not drawn)	730
Cc1ccc(CN2CC(c3ncc(C)n3Cc3cccnc3)C2)s1	683

Compound	RP-LC retention time [s]
O=C(CCc1cn(Cc2ccccc2Cl)c2ccccc12)N1CCN(c2ccccn2)CC1	796
O=C(Cc1nnc(-c2ccc3ncccc3c2)o1)NC1CCCCC1	679
COc1cc(NC(=O)N(C)Cc2nc3cc(C(=O)N(C)C)ccc3n2C)cc(OC)c1	610
CN1CCN(CC(=O)N2CCNC(=O)C2CC(=O)Nc2cccc(C(F)(F)F)c2)CC1 (stereo not drawn)	602
Cc1ccccc1Cn1cc(-c2ccncc2)cc1C(=O)NC(C)c1cccnc1 (stereo not drawn)	579
Cc1noc(-c2nn(C)c3c2CN(C(=O)Nc2cccc(F)c2)CC3)n1	744
Cc1ccc(C(=O)Nc2cc(-c3ccsc3)no2)c(C)c1	1030
Cc1ccccc1-c1nc(C)c(C(=O)NC2CC2)s1	863
Cc1ccc(N2CCC(NC(=O)c3cccs3)C2=O)cc1C (stereo not drawn)	827
Cn1cc(S(=O)(=O)N2CCCCC2)cc1C(=O)N1CCCCC1	833
O=C(Nc1ccc(F)cc1)C1CCCN(c2nc3ccccc3nc2C(F)(F)F)C1 (stereo not drawn)	1190
Cc1ccc(-c2ccc(=O)n(C(C)C(=O)O)n2)cc1 (stereo not drawn)	684
Cc1nn(CC(=O)NCc2ccncc2)c(=O)c2nc(-c3ccccc3)sc12	615
NS(=O)(=O)c1ccc(NC(=O)CCCN2C(=O)c3cccc4cccc(c34)C2=O)cc1	694
COc1ccc(C(=O)Nc2ccc3c(c2)Sc2ncccc2C(=O)N3C)c(OC)c1	706
COc1ccc(CNC(=O)C(C)n2sc3ccccc3c2=O)cc1OC (stereo not drawn)	848
O=C(NCc1ccccc1)Nc1cccc(-c2ccc(N3CCOCC3)nn2)c1	672
CCOC(=O)c1cccc(Nc2c(-c3ccc(C)cc3)nc3cnccn23)c1	941
CN1CCC(NC(=O)c2n[nH]c3c2CN(C(=O)c2ccc(F)cc2F)CC3)CC1	578
CCc1ccc(NC(=O)c2cc3c(=O)n(CC)ccc3n2C)cc1	753
COc1ccc(-c2c(C(=O)NCCN3CCN(C)CC3)nc3ccccn23)cc1	574
COc1cc(CNC(=O)CCCC/C=C\C(C)C)ccc1O	947

Compound	RP-LC retention time [s]
Cc1ccc(C(=O)Nc2ccc3c(c2)Sc2ncccc2C(=O)N3C(C)C)cc1F	986
CCc1noc2nc(CCC(=O)NCCCN3CCN(CC)CC3)nc(N3CCCCC3)c12	595
COc1ccc(C)cc1NC(=O)C1CCN(S(=O)(=O)c2ccc3c(c2)CCCC(=O)N3)CC1	816
Nc1nc(S(=O)(=O)Cc2ccccc2)ns1	637
O=C(CCc1ccccc1)Nc1cnc(N2CCOCC2)nc1	744
O=C(CCNc1c(-c2cccc(F)c2)nc2cnccn12)NCc1cccc(Cl)c1	772
O=C(NC1CCN(c2cc(-c3ccccc3)[nH]n2)C1)c1ccc(Br)cc1 (stereo not drawn)	752
NC1(Cc2ccc(Cl)cc2)CCN(c2ncnc3[nH]ccc23)CC1	602
COc1ccc(NC(=O)c2cccc(N3CCNC(c4ccccc4)C3)n2)cc1 (stereo not drawn)	665
CCN1CCN(C(=O)c2nc(N3CCSCC3)c3cnn(C)c3n2)CC1	604
O=C(NCC1CCN(c2cc(-c3ccncc3)[nH]n2)CC1)c1ccc2cc[nH]c2c1	584
O=C(CCn1c(=O)c2cccn2c2cccnc21)N1CCN(c2ccccn2)CC1	584
CC(C)c1nnc(NC(=O)CCCOc2ccc(Cl)cc2)s1	876
COc1ccc(S(=O)(=O)N2[C@H]3CC[C@@H]2c2cnc(-c4ccccc4)nc2C3)cc1	1030
O=C(NCCc1c[nH]c2ccccc12)c1cn(-c2ccc(F)cc2)nn1	898
Cc1cc(C)c(S(=O)(=O)N2CCC(n3cnc4ccc(C)cc4c3=O)CC2)c(C)c1	640
Cc1ccc(CNC(=O)CN2C(=O)CSc3cccn3-c3ccccc32)cc1	1110
COc1ccc2c(c1)C1(CCN(C(=O)c3cccc(OC)c3OC)C1)C(=O)N2C (stereo not drawn)	737
CCOC(=O)c1ccccc1NC(=O)N(Cc1cc(=O)[nH]c2ccccc12)C(C)C	891
COC(=O)c1cc(OCC(=O)Nc2ccccc2F)c2ccccc2n1	799
O=C(CSc1ccc(N2CCCC(C(=O)NC3CC3)C2)nn1)Nc1cccc(F)c1 (stereo not drawn)	611
O=C(Nc1cnc(N2CCN(c3ccccc3Cl)CC2)c(C(=O)O)c1)c1cccs1	910

Compound	RP-LC retention time [s]
O=c1n(Cc2cccc(Cl)c2)nc2ccc(S(=O)(=O)N3CCCCC3)cn12	989
CC1Cc2ccccc2N1C(=O)c1ccc(=O)n(CCC(=O)NC2CCCCCC2)n1 (stereo not drawn)	861
Cc1nn(C)c(C)c1CNC(=O)CN1C(=O)C2CCCCN2c2ccc(S(=O)(=O)N(C)C)cc21 (stereo not drawn)	693
O=C(NC1CCOCC1)c1ccc(-c2cc(-c3cn[nH]c3-c3ccccn3)ccn2)cc1	617
Fc1ccc(-c2nc3cnccn3c2Nc2ccc(Cl)cc2)cc1	936
CC(=O)N(C1CCOCC1)C1CCN(C(=O)c2ccc(C)s2)CC1	673
COc1ccc(S(=O)(=O)N2CC(C(=O)NC3CCCCC3)Oc3cc(C)ccc32)cc1 (stereo not drawn)	1170
CC1=NS(=O)(=O)N(Cc2ccccc2)C=C1C(=O)OCc1ccc(C)cc1	1170
COc1ccc(-c2noc(C3CCCN3C(=O)c3cc(Cl)ccc3OC)n2)cc1 (stereo not drawn)	1020
COCCCNC(=O)C1CCN(c2nc3ccc(-c4cccs4)nc3s2)CC1	801
CC1CCCN(c2ccn3c(=O)n(CC(=O)NCc4ccc(F)cc4)nc3n2)C1 (stereo not drawn)	804
COc1ccc(-c2noc(Cn3ccnc3C)n2)cc1	611
CSc1cccc(NC(=O)c2cn(C)nc2S(=O)(=O)N2CCC(C)CC2)c1	1120
O=C(NCC(O)c1ccc(C(F)(F)F)cc1)C(=O)Nc1ccc(F)cc1F (stereo not drawn)	880
CCOC(=O)C1CCN(C(=O)C2CCCN(c3nc4cccnc4n(CC)c3=O)C2)CC1 (stereo not drawn)	969
O=C(Cc1c(Sc2ccc(F)cc2)[nH]c2ccccc12)N1CCN(c2ccccn2)CC1	714
O=C(c1cccs1)N1CC(C(=O)N2CCN(c3ncccn3)CC2)C1	604
O=S(=O)(Cc1cccc(Cl)c1)NCCc1noc(-c2ccccc2)n1	971
CS(=O)(=O)c1cccc(C(=O)Nc2nnc(-c3ccno3)o2)c1	603
CCOCCCNS(=O)(=O)c1cc(-c2cc(C)[nH]n2)sc1C	720
COC(=O)c1ccccc1C(=O)N(Cc1cccnc1)c1nc2ccc(F)cc2s1	722
CCn1cc(-c2nc(C)c(C(=O)Nc3cccc(C(=O)OC)c3)s2)c2cccnc21	993
